Where a name gives a salt, the structure may show the parent alone.
What was measured:
[1] = target: T1, hemagglutinin (HA)-tagged wild-type human histamine H1 receptor (HA-WT) (Homo sapiens, UniProt P35367); test: [3H]mepyramine displacement binding to membranes of CHO cells expressing HA-WT; details: van 't Hoff plots (37, 25, 14 °C); ∆Hº vs -T∆Sº
T1 construct: membrane preparations

[2] = target: T2, HA-tagged Lys191 mutant of human histamine H1 receptor to alanine (HA-K191A) (Homo sapiens, UniProt P35367, K191A); test: [3H]mepyramine displacement binding to membranes of CHO cells expressing HA-K191A; details: HA-K191A vs HA-WT; for reduction of affinity by mutation of Lys191 to alanine (times): 25 °C; for Change in Entropy-Dependent Hydrophobic Binding Forces by the mutation of Lys191 to alanine: -T∆Sº from van 't Hoff plots (37, 25, 14 °C); for Change in Enthalpy-Dependent Electrostatic Binding Forces by the mutation of Lys191 to alanine: ∆Hº from van 't Hoff plots (37, 25, 14 °C)
T2 construct: expressed in transfected cells; host or cells: CHO cells; membrane preparations
T2 sequence (P35367 whole entry K191A): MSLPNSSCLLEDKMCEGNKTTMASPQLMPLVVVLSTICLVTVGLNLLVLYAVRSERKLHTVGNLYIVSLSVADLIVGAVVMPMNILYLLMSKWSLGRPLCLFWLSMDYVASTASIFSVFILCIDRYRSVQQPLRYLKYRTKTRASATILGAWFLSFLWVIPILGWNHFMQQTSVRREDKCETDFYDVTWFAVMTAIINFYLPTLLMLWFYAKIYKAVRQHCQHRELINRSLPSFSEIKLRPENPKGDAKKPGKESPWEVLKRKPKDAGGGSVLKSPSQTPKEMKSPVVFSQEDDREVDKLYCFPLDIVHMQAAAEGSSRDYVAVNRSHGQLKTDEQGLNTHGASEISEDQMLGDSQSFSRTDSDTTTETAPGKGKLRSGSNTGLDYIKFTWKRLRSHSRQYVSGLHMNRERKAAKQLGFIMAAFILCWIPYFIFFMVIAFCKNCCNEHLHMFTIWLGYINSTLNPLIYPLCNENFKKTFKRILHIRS

T1 sequence (P35367 whole entry): as the sequence (P35367 whole entry K191A) above, with A191K counted along it

Compound: O=C(O)COCCN1CCN([C@@H](c2ccccc2)c2ccc(Cl)cc2)CC1 [(S)-cetirizine, (S)-cetirizine dihydrochloride]
- thermodynamic driving force of binding (source of negative ∆Gº) to HA-WT [1]: predominantly achieved by enthalpy (∆Hº)
- reduction of affinity by mutation of Lys191 to alanine (times) [2]: ~6.2 times
- Change in Binding Affinity by the mutation of Lys191 to alanine [2]: ↓**
- Change in Entropy-Dependent Hydrophobic Binding Forces by the mutation of Lys191 to alanine [2]: ↑**
- enthalpy-dependent electrostatic binding forces, change by mutation of Lys191 to alanine (in words) ([2]; van 't Hoff plots): significantly reduced
- Change in Enthalpy-Dependent Electrostatic Binding Forces by the mutation of Lys191 to alanine [2]: ↓**

Compound: O=C(O)COCCN1CCN([C@H](c2ccccc2)c2ccc(Cl)cc2)CC1 [levocetirizine, Levocetirizine dihydrochloride]
- thermodynamic driving force of binding (source of negative ∆Gº) to HA-WT [1]: caused by both enthalpy (∆Hº) and entropy (-T∆Sº)
- reduction of affinity by mutation of Lys191 to alanine (times) [2]: approximately 3.6 times
- Change in Binding Affinity by the mutation of Lys191 to alanine [2]: ↓**
- Change in Entropy-Dependent Hydrophobic Binding Forces by the mutation of Lys191 to alanine [2]: ↓*
- enthalpy-dependent electrostatic binding forces, change by mutation of Lys191 to alanine (in words) ([2]; van 't Hoff plots): significantly increased
- entropy-dependent hydrophobic binding forces, change by mutation of Lys191 to alanine (in words) ([2]; van 't Hoff plots): significantly reduced
- Change in Enthalpy-Dependent Electrostatic Binding Forces by the mutation of Lys191 to alanine [2]: ↑*

Source: PMC6321019 (International Journal of Molecular Sciences, 2018)
